Test results published in patent US20230114728A1 (Venatorx Pharmaceuticals, Inc., priority 2019, published 2023).
≈ marks a conversion by molar mass, not a printed value.

Tests used:
Type in all cases: cell-based
[1] = test system: N. gonorrhoeae H041; test: Liquid broth MIC in Fastidious broth; conditions: Neisseria gonorrhoeae, H041, read-out: Minimum Inhibitory Concentration, N. gonorrhoeae H041
In short: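 Broth microdilution against gonococcal strains expressing mosaic PBP2, starting inoculum 5×10^5 CFU/mL in Fastidious broth. Incubation runs ~24 h at 36 °C under 5% CO2, with MIC scored visually at <10% of full growth.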

[2] = test system: A. baumannii ATCC 19606; test: Broth microdilution MIC in CAMHB; conditions: Acinetobacter baumannii, ATCC19606; MHB; read-out: Minimum Inhibitory Concentration, A. baumannii ATCC 19606
In short: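 Colonies from cation-adjusted Mueller Hinton agar are grown in broth (3-5 h, 37° C), adjusted by OD600, and added at 2-8×10^5 CFU/mL to 2-fold compound dilutions. After 16-20 h at 37° C, the lowest concentration without growth is taken as MIC.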

[3] = test system: K. pneumoniae SI-117 producing VIM-1; test: Broth microdilution MIC in CAMHB; conditions: Klebsiella pneumoniae, read-out: Minimum Inhibitory Concentration, K. pneumoniae SI-117
In short: (§1)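 Lowest compound concentration with no visible growth after 16-20 h at 37 °C defines MIC. Plates of 2-fold serial dilutions in cation-adjusted Mueller Hinton broth received 2-8×10^5 CFU/mL of exponentially grown cells, per CLSI methods; panel spans reference, hyper-permeable and efflux-pump-deleted strains.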

[4] = test system: E. coli D22; test: Broth microdilution MIC in CAMHB; conditions: Escherichia coli; E. coli D22 (hyper-permeable); MHB; read-out: Minimum Inhibitory Concentration, E. coli D22
In short: as §1

[5] = test system: E. coli AG100; test: Broth microdilution MIC in CAMHB; conditions: Escherichia coli; E. coli AG100 (wild-type parent); MHB; read-out: Minimum Inhibitory Concentration, E. coli AG100
In short: as §1

[6] = test system: E. coli ATCC 25922; test: Broth microdilution MIC in CAMHB; conditions: Escherichia coli, ATCC25922; E. coli ATCC 25922; MHB; read-out: Minimum Inhibitory Concentration, E. coli 25922
In short: as §1

[7] = test system: P. aeruginosa (ΔmexAB-oprM); test: Broth microdilution MIC in CAMHB; conditions: Pseudomonas aeruginosa, read-out: Minimum Inhibitory Concentration, P. aeruginosa ΔmexAB-OprM
In short: as §1

[8] = test system: K. pneumoniae 848844 producing SHV-11 and KPC-2; test: Broth microdilution MIC in CAMHB; conditions: Klebsiella pneumoniae, read-out: Minimum Inhibitory Concentration, K. pneumoniae 848844
In short: as §1

[9] = test system: P. aeruginosa ATCC 35151; test: Broth microdilution MIC in CAMHB; conditions: Pseudomonas aeruginosa, ATCC35151; MHB; hyper-permeable strain; read-out: Minimum Inhibitory Concentration, P. aeruginosa ATCC 35151
In short: as §1

[10] = test system: K. pneumoniae UMM producing SHV-5 and KPC-2; test: Broth microdilution MIC in CAMHB; conditions: Klebsiella pneumoniae, read-out: Minimum Inhibitory Concentration, K. pneumoniae UMM
In short: as §1

[11] = test system: E. coli 901C; test: Broth microdilution MIC in CAMHB; conditions: Escherichia coli; E. coli 901C (hyper-permeable); MHB; read-out: Minimum Inhibitory Concentration, E. coli 901C
In short: as §1

[12] = test system: P. aeruginosa ATCC 27853; test: Broth microdilution MIC in CAMHB; conditions: Pseudomonas aeruginosa, ATCC27853; MHB; read-out: Minimum Inhibitory Concentration, P. aeruginosa ATCC 27853
In short: as §1

[13] = test system: E. coli AG100A; test: Broth microdilution MIC in CAMHB; conditions: Escherichia coli, read-out: Minimum Inhibitory Concentration, E. coli AG100A
In short: as §1

SMILES	MIC [1]	MIC [2]	MIC [3]	MIC [4]	MIC [5]	MIC [6]	MIC [7]	MIC [8]	MIC [9]	MIC [10]	MIC [11]	MIC [12]	MIC [13]
CCN1CCN(C(=O)NC(C(=O)N[C@H]2Cc3cccc(C(=O)O)c3OB2O)c2ccc(C(=O)O)cc2F)C(=O)C1=O (stereo partly drawn) [Example 145, (3R)-3-(2-(4-carboxy-2-fluorophenyl)-2-(4-ethyl-2,3-dioxopiperazine-1-carboxamido)acetamido)-2-hydroxy-3,4-dihydro-2H-benzo[e][1,2]oxaborinine-8-carboxylic acid]	4 to 8 µg/mL (≈ 7.01 to 14 µM)	> 128 µg/mL	> 128 µg/mL	2 to 4 µg/mL (≈ 3.51 to 7.01 µM)	32 to 64 µg/mL (≈ 56.1 to 112 µM)	32 to 64 µg/mL (≈ 56.1 to 112 µM)	8 to 16 µg/mL (≈ 14 to 28.1 µM)	> 128 µg/mL	< 0.25 µg/mL	32 to 64 µg/mL (≈ 56.1 to 112 µM)	< 0.25 µg/mL	> 128 µg/mL	8 to 16 µg/mL (≈ 14 to 28.1 µM)
CCN1CCN(C(=O)NC(C(=O)N[C@H]2Cc3cccc(C(=O)O)c3OB2O)c2c(F)c(F)c(O)c(F)c2F)C(=O)C1=O (stereo partly drawn) [Example 175, (3R)-3-(2-(4-ethyl-2,3-dioxopiperazine-1-carboxamido)-2-(2,3,5,6-tetrafluoro-4-hydroxyphenyl)acetamido)-2-hydroxy-3,4-dihydro-2H-benzo[e][1,2]oxaborinine-8-carboxylic acid]	4 to 8 µg/mL (≈ 6.71 to 13.4 µM)	32 to 64 µg/mL (≈ 53.7 to 107 µM)	> 128 µg/mL	2 to 4 µg/mL (≈ 3.35 to 6.71 µM)	8 to 16 µg/mL (≈ 13.4 to 26.8 µM)	32 to 64 µg/mL (≈ 53.7 to 107 µM)	8 to 16 µg/mL (≈ 13.4 to 26.8 µM)	> 128 µg/mL	0.5 to 1 µg/mL (≈ 0.839 to 1.68 µM)	32 to 64 µg/mL (≈ 53.7 to 107 µM)	< 0.25 µg/mL	> 128 µg/mL	2 to 4 µg/mL (≈ 3.35 to 6.71 µM)
NCCCN1CCN(C(=O)N[C@@H](C(=O)N[C@H]2Cc3cccc(C(=O)O)c3OB2O)c2cccc(NS(N)(=O)=O)c2)C(=O)C1=O [Example 117, (R)-3-((R)-2-(4-(3-aminopropyl)-2,3-dioxopiperazine-1-carboxamido)-2-(3-(sulfamoylamino)phenyl)acetamido)-2-hydroxy-3,4-dihydro-2H-benzo[e][1,2]oxaborinine-8-carboxylic acid]	> 64 µg/mL	32 to 64 µg/mL (≈ 50.7 to 101 µM)	32 to 64 µg/mL (≈ 50.7 to 101 µM)	2 to 4 µg/mL (≈ 3.17 to 6.33 µM)	32 to 64 µg/mL (≈ 50.7 to 101 µM)	32 to 64 µg/mL (≈ 50.7 to 101 µM)	2 to 4 µg/mL (≈ 3.17 to 6.33 µM)	32 to 64 µg/mL (≈ 50.7 to 101 µM)	< 0.25 µg/mL	32 to 64 µg/mL (≈ 50.7 to 101 µM)	2 to 4 µg/mL (≈ 3.17 to 6.33 µM)	32 to 64 µg/mL (≈ 50.7 to 101 µM)	2 to 4 µg/mL (≈ 3.17 to 6.33 µM)
CCN1CCN(C(=O)NC(C(=O)N[C@H]2Cc3cccc(C(=O)O)c3OB2O)c2cc(Cl)c(O)c(Cl)c2)C(=O)C1=O (stereo partly drawn) [Example 171, (3R)-3-(2-(3,5-dichloro-4-hydroxyphenyl)-2-(4-ethyl-2,3-dioxopiperazine-1-carboxamido)acetamido)-2-hydroxy-3,4-dihydro-2H-benzo[e][1,2]oxaborinine-8-carboxylic acid]	16 to 32 µg/mL (≈ 27 to 53.9 µM)	> 128 µg/mL	> 128 µg/mL	2 to 4 µg/mL (≈ 3.37 to 6.74 µM)	32 to 64 µg/mL (≈ 53.9 to 108 µM)	32 to 64 µg/mL (≈ 53.9 to 108 µM)	2 to 4 µg/mL (≈ 3.37 to 6.74 µM)	> 128 µg/mL	< 0.25 µg/mL	32 to 64 µg/mL (≈ 53.9 to 108 µM)	< 0.25 µg/mL	> 128 µg/mL	2 to 4 µg/mL (≈ 3.37 to 6.74 µM)
CCN1CCN(C(=O)NC(C(=O)N[C@H]2Cc3cccc(C(=O)O)c3OB2O)c2cc(F)c(O)cc2Cl)C(=O)C1=O (stereo partly drawn) [Example 103, (3R)-3-(2-(2-chloro-5-fluoro-4-hydroxyphenyl)-2-(4-ethyl-2,3-dioxopiperazine-1-carboxamido)acetamido)-2-hydroxy-3,4-dihydro-2H-benzo[e][1,2]oxaborinine-8-carboxylic acid]	16 to 32 µg/mL (≈ 27.7 to 55.5 µM)	> 128 µg/mL	> 128 µg/mL	2 to 4 µg/mL (≈ 3.47 to 6.94 µM)	32 to 64 µg/mL (≈ 55.5 to 111 µM)	32 to 64 µg/mL (≈ 55.5 to 111 µM)	8 to 16 µg/mL (≈ 13.9 to 27.7 µM)	> 128 µg/mL	2 to 4 µg/mL (≈ 3.47 to 6.94 µM)	32 to 64 µg/mL (≈ 55.5 to 111 µM)	< 0.25 µg/mL	> 128 µg/mL	2 to 4 µg/mL (≈ 3.47 to 6.94 µM)
CCN1CCN(C(=O)N[C@H](C(=O)N[C@H]2Cc3cccc(C(=O)O)c3OB2O)c2ccc(C(=O)O)cc2O)C(=O)C1=O (single isomer, unassigned) [Example 143]	> 64 µg/mL	> 128 µg/mL	> 128 µg/mL	8 to 16 µg/mL (≈ 14.1 to 28.2 µM)	> 128 µg/mL	> 128 µg/mL	> 128 µg/mL	> 128 µg/mL	2 to 4 µg/mL (≈ 3.52 to 7.04 µM)	> 128 µg/mL	0.5 to 1 µg/mL (≈ 0.88 to 1.76 µM)	> 128 µg/mL	32 to 64 µg/mL (≈ 56.3 to 113 µM)
NC1(CN2CCN(C(=O)N[C@@H](C(=O)N[C@H]3Cc4cccc(C(=O)O)c4OB3O)c3c(F)cc(O)cc3F)C(=O)C2=O)CC1 (single isomer, unassigned) [Example 121]	> 64 µg/mL	> 128 µg/mL	32 to 64 µg/mL (≈ 53.2 to 106 µM)	2 to 4 µg/mL (≈ 3.33 to 6.65 µM)	8 to 16 µg/mL (≈ 13.3 to 26.6 µM)	8 to 16 µg/mL (≈ 13.3 to 26.6 µM)	8 to 16 µg/mL (≈ 13.3 to 26.6 µM)	32 to 64 µg/mL (≈ 53.2 to 106 µM)	0.5 to 1 µg/mL (≈ 0.831 to 1.66 µM)	8 to 16 µg/mL (≈ 13.3 to 26.6 µM)	0.5 to 1 µg/mL (≈ 0.831 to 1.66 µM)	> 128 µg/mL	2 to 4 µg/mL (≈ 3.33 to 6.65 µM)
NCCN1CCN(C(=O)N[C@@H](C(=O)N[C@H]2Cc3cccc(C(=O)O)c3OB2O)c2cc(Cl)c(O)c(Cl)c2)C(=O)C1=O (single isomer, unassigned) [Example 166]	> 64 µg/mL	> 128 µg/mL	32 to 64 µg/mL (≈ 52.6 to 105 µM)	2 to 4 µg/mL (≈ 3.29 to 6.58 µM)	8 to 16 µg/mL (≈ 13.2 to 26.3 µM)	8 to 16 µg/mL (≈ 13.2 to 26.3 µM)	2 to 4 µg/mL (≈ 3.29 to 6.58 µM)	32 to 64 µg/mL (≈ 52.6 to 105 µM)	< 0.25 µg/mL	32 to 64 µg/mL (≈ 52.6 to 105 µM)	< 0.25 µg/mL	8 to 16 µg/mL (≈ 13.2 to 26.3 µM)	0.5 to 1 µg/mL (≈ 0.822 to 1.64 µM)
CCN1CCN(C(=O)N[C@H](C(=O)N[C@H]2Cc3cccc(C(=O)O)c3OB2O)c2ccc(C(=O)O)cc2Cl)C(=O)C1=O (single isomer, unassigned) [Example 152]	16 to 32 µg/mL (≈ 27.3 to 54.5 µM)	> 128 µg/mL	> 128 µg/mL	8 to 16 µg/mL (≈ 13.6 to 27.3 µM)	> 128 µg/mL	> 128 µg/mL	32 to 64 µg/mL (≈ 54.5 to 109 µM)	> 128 µg/mL	0.5 to 1 µg/mL (≈ 0.852 to 1.7 µM)	> 128 µg/mL	0.5 to 1 µg/mL (≈ 0.852 to 1.7 µM)	> 128 µg/mL	32 to 64 µg/mL (≈ 54.5 to 109 µM)
CCN1CCN(C(=O)NC(C(=O)N[C@H]2Cc3cccc(C(=O)O)c3OB2O)c2cc(F)c(O)c(F)c2)C(=O)C1=O (stereo partly drawn) [Example 160, (3R)-3-(2-(3,5-difluoro-4-hydroxyphenyl)-2-(4-ethyl-2,3-dioxopiperazine-1-carboxamido)acetamido)-2-hydroxy-3,4-dihydro-2H-benzo[e][1,2]oxaborinine-8-carboxylic acid]	16 to 32 µg/mL (≈ 28.6 to 57.1 µM)	> 128 µg/mL	> 128 µg/mL	2 to 4 µg/mL (≈ 3.57 to 7.14 µM)	32 to 64 µg/mL (≈ 57.1 to 114 µM)	32 to 64 µg/mL (≈ 57.1 to 114 µM)	2 to 4 µg/mL (≈ 3.57 to 7.14 µM)	32 to 64 µg/mL (≈ 57.1 to 114 µM)	< 0.25 µg/mL	32 to 64 µg/mL (≈ 57.1 to 114 µM)	< 0.25 µg/mL	> 128 µg/mL	2 to 4 µg/mL (≈ 3.57 to 7.14 µM)
CCN1CCN(C(=O)N[C@H](C(=O)N[C@H]2Cc3cccc(C(=O)O)c3OB2O)c2ccc(C(=O)O)c(F)c2F)C(=O)C1=O (single isomer, unassigned) [Example 139]	4 to 8 µg/mL (≈ 6.8 to 13.6 µM)	> 128 µg/mL	> 128 µg/mL	2 to 4 µg/mL (≈ 3.4 to 6.8 µM)	32 to 64 µg/mL (≈ 54.4 to 109 µM)	> 128 µg/mL	8 to 16 µg/mL (≈ 13.6 to 27.2 µM)	> 128 µg/mL	0.5 to 1 µg/mL (≈ 0.85 to 1.7 µM)	32 to 64 µg/mL (≈ 54.4 to 109 µM)	< 0.25 µg/mL	> 128 µg/mL	8 to 16 µg/mL (≈ 13.6 to 27.2 µM)
